The source of these data is patent US11254671B2, “Chemical compounds” (GLAXOSMITHKLINE INTELLECTUAL PROPERTY DEVELOPMENT LIMITED, priority 2017, dated 2022).

The subject of the assay is phosphorylated Akt at serine 473 (pAKTs473) in primary human lung fibroblasts. The assay can be described thus: Highthroughput phosphorylated Akt (Ser473) in vitro immunoassay (MSD). In kind it is cell-based. As to conditions: Fibroblast, 1 h compound, PDGF-BB 10 ng/ml for 10 min, mean of multiple experiments, read-out: mean pIC50, inhibition of pAkt (Ser473) (converted). The source says:
Highthroughput Phosphorylated Akt (Ser473) In Vitro Immunoassay
Immunoassay to measure effect of test compounds on phosphorylated Akt at serine 473 (pAKTs473) in primary human lung fibroblasts (Lonza Group Ltd, Basel, Switzerland, Catalogue No. CC-2512) using the MesoScale Discovery (MSD) platform to quantify levels of total Akt and pAKTser473.
Human lung fibroblasts were routinely maintained in fibroblast basal medium supplemented with 2% foetal bovine serum (FBS), 0.1% human fibroblast growth factor (FGF)-B, 0.1% insulin, 0.1% GA-100 (Lonza Group Ltd, Basel, Switzerland, Catalogue No. CC-3132) at 37° C. in 5% CO2 according to the manufacturer's protocol.
For the assay, cells were harvested using Trypsin/EDTA, (Lonza Group Ltd, Basel, Switzerland, Catalogue No. CC-5012), at working concentration of 0.025%, resuspended to give 3×10^5 cells/ml and 50 ul/well seeded into 384-well plates (Greiner Group, Kremsmunster, Austria, Catalogue No. 781091) in media containing 0.4% FBS and incubated o/n at 37° C. in 5% CO2.
Test compounds were dissolved in 100% DMSO to give 10 mM stock solutions and serially diluted to generate an 11-point concentration response curve. Compound were further diluted by […] into 384-well V-bottom polypropylene plates (Greiner Group, Kremsmunster, Austria, Catalogue No. 781280) with media containing 0.4% FBS to give 50 μM top compound concentration in 0.5% DMSO.
Compounds were transferred to 384-well plates contacting cells (0.1% DMSO final) and incubated for 1 h at 37° C. in 5% CO2, prior to stimulation with platelet-derived growth factor (PDGF)-BB (R&D Systems, Catalogue No. 220-BB) at 10 ng/ml (final) for 10 min at RT. Cell assay plates were incubated on ice and treated with lysis buffer (Cell Signalling Technology, Catalogue No. 9806) containing protease and phosphatase inhibitors (Thermo Scientific, Catalogue No. 78444) followed by shaking for 30 min at 4° C.
MSD plates (MSD, MA6000 384-well GAR plate, Catalogue No. L21RA-2) were blocked with blocking buffer containing TBS (MSD, Cat. No. R61TX-1) with 0.5% bovine serum albumin (BSA) (Sigma Aldrich, Cat. No. A7906), 0.1% tween-20 (Sigma Aldrich, Catalogue No. P2287) and coated with rabbit-anti-human pAkt (s473) ab (Cell Signalling Technology, Catalogue No. CST #4060) at RT with shaking, followed by washing (×3) with 1×TBS wash reagent containing 0.1% Tween-20. Cell lysates (30 ul) were added and MSD plates centrifuged at 1000 rpm at 4° C. o/n.
Plates were washed with 1×TBS wash buffer (×3), prior to addition of mouse-anti-human-total Akt ab (1 mg/ml) (Upstate (Milipore), Catalogue No. 05-591) in blocking buffer and shaken at RT for 1 h. After washing with 1×TBS wash buffer (×3), plates were incubated with goat-anti-mouse SULFO-TAG detection ab (MSD, Catalogue No. R32AC-1) (1:500 in blocking buffer) for 1 h at RT. Plates were washed with 1×TBS (×3) and read buffer (2×) (MSD, Catalogue No. R92TC-1) added before detecting electrochemiluminescence (MSD Sector Imager 6000).
Data analysis was performed by determining % inhibition values for test compounds relative to the minimum (+PDGF-BB stimulation) and maximum responses (no PDGF-BB stimulation) with non-linear regression analysis to determine IC50 values for test compounds.
For `CC[C@H]1COCCN1c1cc(C(C)(C)S(=O)(=O)C2CC2)cc(-c2ccc3[nH]c(CNC)cc3n2)n1` [Example 9, (S)-1-(5-(4-(2-(cyclopropylsulfonyl)propan-2-yl)-6-(3-ethylmorpholino)pyridin-2-yl)-1H-pyrrolo[3,2-b]pyridin-2-yl)-N-methylmethanamine], the IC50 is 3.16 to 316 nM.
Turning to `CC[C@H]1COCCN1c1cc(C(C)(C)S(C)(=O)=O)cc(-c2ccc3[nH]c(CN)cc3n2)n1` [Example 21, 1-(5-{6-[(3S)-3-ethylmorpholin-4-yl]-4-(2-methanesulfonylpropan-2-yl)pyridin-2-yl}-1H-pyrrolo[3,2-b]pyridin-2-yl)methanamine], the IC50 was 3.16 to 316 nM.
As to `CC[C@H]1COCCN1c1cc(C2(S(C)(=O)=O)CCOCC2)cc(-c2ccc3[nH]c(CN)cc3n2)n1` [Example 23, 1-(5-{6-[(3S)-3-ethylmorpholin-4-yl]-4-(4-methanesulfonyloxan-4-yl)pyridin-2-yl}-1H-pyrrolo[3,2-b]pyridin-2-yl)methanamine], the IC50 was 2.51 to 10 nM.
Then `CNCc1cc2nc(-c3cc(C4(S(C)(=O)=O)CCOCC4)cc(N4C5CCC4COC5)n3)ccc2[nH]1` [Example 40, ({5-[4-(4-methanesulfonyloxan-4-yl)-6-{3-oxa-8-azabicyclo[3.2.1]octan-8-yl}pyridin-2-yl]-1H-pyrrolo[3,2-b]pyridin-2-yl}methyl)(methyl)amine], with 3.16 to 316 nM; and `CC[C@H]1COCCN1c1cc(CS(=O)(=O)N(C)C)cc(-c2ccc3[nH]c(CNC)cc3n2)n1` [Example 17, (S)-1-(2-(3-ethylmorpholino)-6-(2-((methylamino)methyl)-1H-pyrrolo[3,2-b]pyridin-5-yl)pyridin-4-yl)-N,N-dimethylmethanesulfonamide], with 2.51 to 10 nM.
To `CC[C@H]1COCCN1c1cc(CS(C)(=O)=O)cc(-c2ccc3[nH]c(CO)cc3n2)n1` [Example 34, (5-{6-[(3S)-3-ethylmorpholin-4-yl]-4-(methanesulfonylmethyl)pyridin-2-yl}-1H-pyrrolo[3,2-b]pyridin-2-yl)methanol] belongs 2.51 to 10 nM; to `CC[C@H]1COCCN1c1cc(C2(S(=O)(=O)C3CC3)CC2)cc(-c2ccc3[nH]c(CNC)cc3n2)n1` [Example 11, (S)-1-(5-(4-(1-(cyclopropylsulfonyl)cyclopropyl)-6-(3-ethylmorpholino)pyridin-2-yl)-1H-pyrrolo[3,2-b]pyridin-2-yl)-N-methylmethanamine], 3.16 to 316 nM; to `CC[C@H]1COCCN1c1cc(C2(S(C)(=O)=O)CCOCC2)cc(-c2ccc3[nH]c(CO)cc3n2)n1` [Example 33, (5-{6-[(3S)-3-ethylmorpholin-4-yl]-4-(4-methanesulfonyloxan-4-yl)pyridin-2-yl}-1H-pyrrolo[3,2-b]pyridin-2-yl)methanol], 2.51 to 10 nM.
Then `CNCc1cc2nc(-c3cc(C(C)(C)S(C)(=O)=O)cc(N4[C@@H]5CC[C@H]4COC5)n3)ccc2[nH]1` [Example 3, 1-(5-(6-((1R,5S)-3-oxa-8-azabicyclo[3.2.1]octan-8-yl)-4-(2-(methylsulfonyl)propan-2-yl)pyridin-2-yl)-1H-pyrrolo[3,2-b]pyridin-2-yl)-N-methylmethanamine], with 3.16 to 316 nM; and `CC[C@H]1COCCN1c1cc(CS(=O)(=O)C2CC2)cc(-c2ccc3[nH]c(CNC)cc3n2)n1` [Example 10, (S)-1-(5-(4-((cyclopropylsulfonyl)methyl)-6-(3-ethylmorpholino)pyridin-2-yl)-1H-pyrrolo[3,2-b]pyridin-2-yl)-N-methylmethanamine], with 2.51 to 10 nM.
For `CNCc1cc2nc(-c3cc(CS(C)(=O)=O)cc(N4CC5CCC(C4)O5)n3)ccc2[nH]1` [Example 25, ({5-[4-(methanesulfonylmethyl)-6-{8-oxa-3-azabicyclo[3.2.1]octan-3-yl}pyridin-2-yl]-1H-pyrrolo[3,2-b]pyridin-2-yl}methyl)(methyl)amine], the IC50 was 3.16 to 316 nM.
As to `CNCc1cc2nc(-c3cc(C(F)(F)S(C)(=O)=O)cc(N4CCOC[C@@H]4C)n3)ccc2[nH]1` [Example 12, (S)-1-(5-(4-(difluoro(methylsulfonyl)methyl)-6-(3-methylmorpholino)pyridin-2-yl)-1H-pyrrolo[3,2-b]pyridin-2-yl)-N-methylmethanamine], the IC50 is 3.16 to 316 nM.
To `CC[C@H]1COCCN1c1cc(C2(S(C)(=O)=O)CC2)cc(-c2ccc3[nH]c(CNC)cc3n2)n1` [Example 19, [(5-{6-[(3S)-3-ethylmorpholin-4-yl]-4-(1-methanesulfonylcyclopropyl)pyridin-2-yl}-1H-pyrrolo[3,2-b]pyridin-2-yl)methyl](methyl)amine] belongs 2.51 to 10 nM; to `CCS(=O)(=O)C(C)(C)c1cc(-c2ccc3[nH]c(CNC)cc3n2)nc(N2CCOC[C@@H]2C)c1` [Example 7, (S)-1-(5-(4-(2-(ethylsulfonyl)propan-2-yl)-6-(3-methylmorpholino)pyridin-2-yl)-1H-pyrrolo[3,2-b]pyridin-2-yl)-N-methylmethanamine], 3.16 to 316 nM.
`CC[C@H]1COCCN1c1cc(C(C)(C)S(N)(=O)=O)cc(-c2ccc3[nH]c(CNC)cc3n2)n1` [Example 28, 2-{2-[(3S)-3-ethylmorpholin-4-yl]-6-{2-[(methylamino)methyl]-1H-pyrrolo[3,2-b]pyridin-5-yl}pyridin-4-yl}propane-2-sulfonamide]: the IC50 is 3.16 to 316 nM.
To `CNCc1cc2nc(-c3cc(C(C)(C)S(C)(=O)=O)cc(N4CC5CCC(C4)O5)n3)ccc2[nH]1` [Example 4, 1-(5-(6-(8-oxa-3-azabicyclo[3.2.1]octan-3-yl)-4-(2-(methylsulfonyl)propan-2-yl)pyridin-2-yl)-1H-pyrrolo[3,2-b]pyridin-2-yl)-N-methylmethanamine] belongs 3.16 to 316 nM; to `CC[C@H]1COCCN1c1cc(C(C)(C)S(C)(=O)=O)cc(-c2ccc3[nH]c(CO)cc3n2)n1` [Example 32], 3.16 to 316 nM.
Take `CC[C@H]1COCCN1c1cc(CS(=O)(=O)N(C)C)cc(-c2ccc3[nH]c(CO)cc3n2)n1` [Example 35, 1-{2-[(3S)-3-ethylmorpholin-4-yl]-6-[2-(hydroxymethyl)-1H-pyrrolo[3,2-b]pyridin-5-yl]pyridin-4-yl}-N,N-dimethylmethanesulfonamide]: the IC50 was 2.51 to 10 nM.
For the molecule `CC[C@H]1COCCN1c1cc(CS(=O)(=O)NC)cc(-c2ccc3[nH]c(CNC)cc3n2)n1` [Example 30, 1-{2-[(3S)-3-ethylmorpholin-4-yl]-6-{2-[(methylamino)methyl]-1H-pyrrolo[3,2-b]pyridin-5-yl}pyridin-4-yl}-N-methylmethanesulfonamide], the IC50 is 3.16 to 316 nM.
In the case of `CC[C@H]1COCCN1c1cc(CS(C)(=O)=O)cc(-c2ccc3[nH]c(CNC)cc3n2)n1` [Example 13, (S)-1-(5-(6-(3-ethylmorpholino)-4-((methylsulfonyl)methyl)pyridin-2-yl)-1H-pyrrolo[3,2-b]pyridin-2-yl)-N-methylmethanamine], the IC50 is 3.16 to 316 nM.
As for `CNCc1cc2nc(-c3cc(C(C)(C)S(C)(=O)=O)cc(N4CCOC[C@@H]4C)n3)ccc2[nH]1` [Example 2, (S)—N-methyl-1-(5-(6-(3-methylmorpholino)-4-(2-(methylsulfonyl)propan-2-yl)pyridin-2-yl)-1H-pyrrolo[3,2-b]pyridin-2-yl)methanamine], the IC50 was 3.16 to 316 nM.
For `CNCc1cc2nc(-c3cc(CS(C)(=O)=O)cc(N4CCOC[C@@H]4C)n3)ccc2[nH]1` [Example 6, (S)—N-methyl-1-(5-(6-(3-methylmorpholino)-4-((methylsulfonyl)methyl)pyridin-2-yl)-1H-pyrrolo[3,2-b]pyridin-2-yl)methanamine], the IC50 was 3.16 to 316 nM.
